Reference: the CATMoS acute toxicity set (Mansouri et al. 2021)

Assay: GHS categories as the set defines them, by LD50: 1 up to 5, 2 up to 50, 3 up to 300, 4 up to 2000, 5 above 2000 mg/kg
Conditions: rat; in vivo; po

Row | SMILES | GHS category
1 | CCCCCC1=C(CC(=O)OC)CCC1=O | 5
2 | O=C(O)c1cc(C(=O)O)cc([N+](=O)[O-])c1 | 5
3 | C/C1=C\[C@@H](C)C/C=C/[C@H]2[C@@H]3O[C@]3(C)[C@@H](C)[C@H]3[C@H](Cc4c[nH]c5ccccc45)NC(=O)[C@]32C(=O)/C=C/C(=O)[C@@H]1O | 4
4 | Nc1ccc2oc(=O)[nH]c2c1 | 4
5 | CN1C(=CC=O)C(C)(C)c2ccccc21 | 3
6 | Cc1ccc(C(=O)c2cc(O)c(O)c([N+](=O)[O-])c2)cc1 | 5
7 | CC(=O)O[C@@H]1[C@H](OC(C)=O)[C@@H](C)O[C@H]1n1cc(F)c(N)nc1=O | 5
8 | CCNc1nc(Cl)nc(NCC(=O)O)n1 | 5
9 | CC(=O)OC1CN(C)C(=O)N1c1cc(C(C)(C)C)no1 (centres undefined) | 4
10 | CCCCC(CC)C(=O)OOC(C)(C)C (centres undefined) | 5
11 | Cc1cc(C)cc(N2C(=O)c3ccc4c5ccc6c7c(ccc(c8ccc(c3c48)C2=O)c75)C(=O)N(c2cc(C)cc(C)c2)C6=O)c1 | 5
12 | CC(C)C1=CC2=CC[C@H]3[C@](C)(CO)CCC[C@]3(C)[C@H]2CC1 | 5
13 | c1ccc([I+]c2ccccc2)cc1 | 4
14 | CC(C)(C)c1ccc(O)c(C(C)(C)C)c1 | 5
15 | CC(=O)CCCC(C)CCC=C(C)C (centres undefined) | 5
16 | CCCOC(=O)C(C(=O)OCCC)=C1SC2C(S1)N(C)CCN2C (centres undefined) | 4
17 | CNC(=O)C(=NNc1ccc(Cl)c(Cl)c1)C(C)=O | 5
18 | CCOC(=O)[C@H](CCc1ccccc1)N[C@H]1CCc2ccccc2N(CC(=O)O)C1=O | 5
19 | CN1C(=O)COc2cc(C(=O)C=Cc3ccc(O)cc3)ccc21 | 5
20 | CCCNC(=O)c1sc(-c2ccccc2OC)nc1C | 5
21 | CC1(C)C=C(n2ccccc2=O)c2cc(C#N)ccc2C1=O | 3
22 | CCCCOC(=O)Cc1ccccc1 | 5
23 | ClC1C(Br)C(Br)C(Br)C(Br)C1Br (centres undefined) | 5

Row | SMILES | GHS category
24 | CC(C)(C)c1ccc(OP(=O)(Oc2ccccc2)Oc2ccccc2)cc1 | 5
25 | CC(C)Oc1ccc2c(c1)N(CCC1CCCCN1C)c1ccccc1S2 (centres undefined) | 5
26 | CCSCCO | 5
27 | CCCS(=O)(=O)Nc1ccc(F)c(C(=O)c2cn(C(=O)c3c(Cl)cccc3Cl)c3ncc(Br)cc23)c1F | 5
28 | CC(C)(N=C(O)C(Br)C(C)(C)C)c1ccccc1 (centres undefined) | 5
29 | Nc1ccc(C(=O)NCCN2CCN(c3ccccn3)CC2)cc1 | 5
30 | CCCc1nc2ncnn2c(N(CC)CC)c1Cc1ccc(-c2ccccc2-c2nn[nH]n2)cc1 | 4
31 | CC(=O)[C@@]1(O)CC[C@H]2[C@@H]3CCC4=CC(=O)CC[C@]4(C)C3=CC[C@@]21C | 5
32 | NCC1CCC(N)C(OC2C(N)CC(N)C(OC3OC(CO)C(O)C(N)C3O)C2O)O1 (centres undefined) | 5
33 | COc1ccc2c(c1)c(CC(=O)NC1CCCC1)c(C)n2C(=O)c1ccc(Cl)cc1 | 5
34 | Cc1c(C)c2c(c(C)c1OC(=O)CCC(=O)O)CC[C@@](C)(CCC[C@H](C)CCC[C@H](C)CCCC(C)C)O2 | 5
35 | COc1ccccc1C=CC=O | 5
36 | CCCc1c(Cc2ccc(-c3ccccc3-c3nn[nH]n3)cc2)c(=O)nc2nc(CC)[nH]n12 | 4
37 | CC(C)=CCN(CC=C(C)C)CCC(C#N)(c1cccc2ccccc12)C(C)C (centres undefined) | 4
38 | Cc1cc(O)c(C)c2c1OC(C)(CCCC(C)CCCC(C)CCCC(C)C)CC2 (racemic) | 5
39 | Cn1cc(-c2ccccc2)c(=O)c(-c2cccc(C(F)(F)F)c2)c1 | 5
40 | CCCCNC(=O)CC[C@H](NC(=O)C(CC)CCCC)C(=O)NCCCC (some centres undefined) | 5
41 | CC(C)C(=O)OOC(C)(C)C | 5
42 | FC(F)(F)c1cccc(C(F)(F)F)c1 | 5
43 | CN(C(=O)COc1nc2ccccc2s1)c1ccccc1 | 5
44 | CCOC(=O)Cn1c(=O)sc2cccc(Cl)c21 | 5
45 | Nc1ccc(CCc2ccc(N)cc2)cc1 | 5
46 | CCOCC1COC(Cn2cncn2)(c2cc3ccccc3o2)O1 (centres undefined) | 4

Row | SMILES | GHS category
47 | CC=CCCC1CCCC(=O)O1 (centres undefined) | 5
48 | Cc1ccnc(N)c1 | 4
49 | O=S(=O)(O)c1cc(Nc2nc(Cl)nc(N(CCO)CCO)n2)ccc1C=Cc1ccc(Nc2nc(Cl)nc(N(CCO)CCO)n2)cc1S(=O)(=O)O | 5
50 | C[Si](C)(C)O[Si](C)(C)O[Si](C)(C)C | 5
51 | CNC(=O)Oc1cccc2c1OC(C)O2 (centres undefined) | 3
52 | CC(=O)COc1nn(-c2cccc(C(F)(F)F)c2)c2ncccc12 | 4
53 | CC1CCC2(OC1)OC1CC3C4CC=C5CC(O)CCC5(C)C4CCC3(C)C1C2C (centres undefined) | 5
54 | CCOP(=S)(OCC)SSSP(=S)(OCC)OCC | 5
55 | C=CC1=C(C(=O)O)N2C(=O)[C@@H](NC(=O)/C(=N\O)c3csc(N)n3)[C@H]2SC1 | 5
56 | CCn1cc(C(=O)O)c(=O)c2cc(F)c(N3CCNCC3)nc21 | 5
57 | CC1CCN(c2nc3cc(Cl)ccc3o2)CCN1 (centres undefined) | 4
58 | CC(CCC(=O)O)C1CCC2C3C(OS(=O)(=O)O)CC4CC(OS(=O)(=O)O)CCC4(C)C3CCC12C (centres undefined) | 5
59 | CC(=O)Oc1c(I)cc(I)cc1C(=O)Nc1ccc(Cl)cc1 | 5
60 | Clc1ccccc1-c1nc(-c2ccncc2)no1 | 5
61 | CCCCCCCC(O)CCO (centres undefined) | 5
62 | COC(=O)C1=C(C)NC(C)=C(C(=O)O)C1c1cc([N+](=O)[O-])ccc1F (centres undefined) | 5
63 | [C] | 5
64 | Nc1ccc(-c2ccc(N)c3c2C(=O)c2ccccc2C3=O)c2c1C(=O)c1ccccc1C2=O | 5
65 | CCCCCCCCCCCCCCCNP1(=S)OCc2cc([N+](=O)[O-])ccc2O1 (centres undefined) | 3
66 | COc1cc([N+](=O)[O-])ccc1N=NC(C(C)=O)C(=O)Nc1ccccc1OC (centres undefined) | 5
67 | Cc1cc(Cc2cc(C)cc(C3CCCCC3)c2O)c(O)c(C2CCCCC2)c1 | 5
68 | CC(C)(c1ccccc1)c1ccc(Nc2ccc(C(C)(C)c3ccccc3)cc2)cc1 | 5
69 | CCN(CC)C(=O)C(C)Oc1cccc2ccccc12 (centres undefined) | 5

Row | SMILES | GHS category
70 | COC(=O)CCCCCCCCC(=O)OC | 5
71 | C[C@]12COC(=O)C[C@@H]1CC[C@@H]1[C@@H]2CC[C@@]2(C)[C@H]1CC[C@]2(C)O | 5
72 | C=CCOc1cc(Cl)ccc1C(=O)NCCN(CC)CC | 5
73 | Cc1ccc(C(=O)COc2c(C(=O)c3ccc(Cl)c(C)c3Cl)c(C)nn2C)cc1 | 5
74 | CCCCCCCCCCCCCCCc1cccc(OC(=O)c2cc(Cl)ccc2OC(N)=O)c1 | 5
75 | CC(CO)CO | 5
76 | CC[N+](C)(CC)CCSC1=Nc2ccccc2N=C(c2ccc(Sc3ccccc3)cc2)C1 | 5
77 | CS(=O)(=O)c1ccc(C(=O)C2C(=O)CCCC2=O)c(Cl)c1COCC(F)(F)F | 5
78 | CCCOC(=O)c1ccc(O)cc1 | 5
79 | COC(=O)C(C)O (centres undefined) | 5
80 | CCCCCCCCCCCCCC[Si](C)(O[Si](C)(C)C)O[Si](C)(C)C | 5
81 | Oc1cc(Cl)cc(Br)c1 | 5
82 | NC(=O)c1ccc(N)cc1 | 5
83 | O=C1NC(=O)C(c2ccc(O)cc2)N1 (centres undefined) | 5
84 | CCN(CC)CCc1nc(-c2ccccc2)no1 | 5
85 | CCCC1(C)COC(Cn2cncn2)(c2cc3ccccc3o2)OC1 (centres undefined) | 4
86 | CC1=C(NC(=O)O)/C(=N/C(=O)CN)C=CC1(NC(=O)O)c1cccc(C2=CC=C/C(=N\C(=O)CN)C2C)c1 (centres undefined) | 5
87 | Cc1cccc(C)c1N=C(O)c1cccnc1O | 5
88 | COP(=O)(NC(=O)C(C)C)SC (centres undefined) | 4
89 | CO[C@H]1C[C@H](O[C@H]2[C@H](C)[C@@H](O[C@@H]3O[C@H](C)C[C@H](N(C)C)[C@H]3O)[C@H](C)C[C@@]3(CO3)C(=O)[C@H](C)[C@@H](O)[C@@H](C)[C@@H](C)OC(=O)[C@@H]2C)O[C@@H](C)[C@@H]1O | 5
90 | CCCCCCCCCCCCCCCc1cccc(OC(=O)c2ccccc2OC(N)=O)c1 | 5
91 | CC(C)=CCCC(C)CCOC(=O)Cc1ccccc1 (centres undefined) | 5
92 | O=c1c2cc(Cl)ccc2[nH]c2cc3c(=O)c4cc(Cl)ccc4[nH]c3cc12 | 5

Row | SMILES | GHS category
93 | Cc1cc(C)nc(NC(=O)NS(=O)(=O)c2ccccc2C(=O)OC2COC2)n1 | 5
94 | CCCCOC(=O)c1ccccc1N=Nc1c(O)c(C(=O)Nc2ccc3[nH]c(=O)[nH]c3c2)cc2ccccc12 | 5
95 | NC1=NC(=O)CC(=O)N1 | 5
96 | CCN(CCCCCCOC(=O)c1ccc(OC)c(OC)c1)C1CCc2ccccc2C1 (centres undefined) | 5
97 | C#CCN(C(C)=O)C(=O)Oc1cccc2c1OC(C)(C)O2 | 4
98 | CCCCCCCCCCCCCCCCCCCN | 5
99 | CCCCCCCC/C=C\CCCCCCCC(=O)OCC(COC(=O)CCCCCCC/C=C\CCCCCCCC)OC(=O)CCCCCCC/C=C\CCCCCCCC | 5
100 | COCCOCCOC(=O)C(=O)Nc1nc(-c2ccccc2)cs1 | 5
101 | CCC(=O)OC(C)(C)C1CC=C(C)CC1 (centres undefined) | 5
102 | COC(=O)[C@]1(C)CCC[C@@]2(C)[C@H]1CC=C1C=C(C(C)C)CC[C@@H]12 | 5
103 | CC(=O)n1c(=O)oc2ccc(Cl)cc21 | 5
104 | CN1CC(c2ccno2)CC2c3cccc4[nH]cc(c34)CC21 (centres undefined) | 4
105 | CCC=CCC=CCC=CCC=CCCCCCCC(=O)OCC | 5
106 | O=C1COc2cc(C(=O)c3ccc(Cl)cc3)ccc2N1 | 5
107 | COC(=O)c1ccccc1CS(=O)(=O)NC(=O)Nc1nc(OC)cc(OC)n1 | 5
108 | CC(C)(C)[C@H](NC(=O)OCc1ccccc1)C(=O)O | 4
109 | CC1=C(/C=C/C(C)=C/C=C/C(C)=C/C=C/C=C(C)/C=C/C=C(C)/C=C/C2=C(C)CCCC2(C)C)C(C)(C)CCC1 | 5
110 | O=C(O)c1ccc(C(=O)O)o1 | 5
111 | O=S(=O)(CCl)c1ccc(Br)cc1 | 5
112 | CCOC(=O)CCn1c(=N)oc2ccccc21 | 4
113 | CON(C)C(=O)Nc1cc(C(C)(C)C)ns1 | 4
114 | Cc1c(C2=C(O)CC(C)(C)CC2=O)c2c(n1-c1ccccc1)CC(C)(C)CC2=O | 5
